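Where inhibition never reached the appropriate level, the endpoint shown equals the highest concentration tested. Otherwise, values were interpolated linearly from a five-concentration, 48-hour dose response in 96-well plates. GI50 is the concentration that inhibits growth by half. TGI: total growth inhibition.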
How the values were obtained:
Experiment in all cases: inhibition of tumour cell growth, NCI panel, 48 h
OVCAR-3 ovarian = test system: OVCAR-3 ovarian
OVCAR-4 ovarian = test system: OVCAR-4 ovarian
HOP-92 NSCLC = test system: HOP-92 NSCLC
SK-OV-3 ovarian = test system: SK-OV-3 ovarian
SF-539 CNS = test system: SF-539 CNS
NCI-H226 lung = test system: NCI-H226 lung
TK-10 renal = test system: TK-10 renal
UACC-257 melanoma = test system: UACC-257 melanoma
LOX IMVI melanoma = test system: LOX IMVI melanoma
RPMI-8226 leukemia = test system: RPMI-8226 leukemia
U251 CNS = test system: U251 CNS
SK-MEL-28 melanoma = test system: SK-MEL-28 melanoma
HL-60(TB) leukemia = test system: HL-60(TB) leukemia
KM20L2 colon = test system: KM20L2 colon
HCT-116 colon = test system: HCT-116 colon
SK-MEL-2 melanoma = test system: SK-MEL-2 melanoma
HT29 colon = test system: HT29 colon
HCC-2998 colon = test system: HCC-2998 colon
SNB-75 CNS = test system: SNB-75 CNS
UO-31 renal = test system: UO-31 renal
COLO 205 colon = test system: COLO 205 colon
ACHN renal = test system: ACHN renal
NCI-H23 lung = test system: NCI-H23 lung
IGROV1 ovarian = test system: IGROV1 ovarian
KM12 colon = test system: KM12 colon
HOP-62 NSCLC = test system: HOP-62 NSCLC
A549 NSCLC = test system: A549 NSCLC
A498 renal = test system: A498 renal
786-0 renal = test system: 786-0 renal
K-562 leukemia = test system: K-562 leukemia
MALME-3M melanoma = test system: MALME-3M melanoma
OVCAR-8 ovarian = test system: OVCAR-8 ovarian
UACC-62 melanoma = test system: UACC-62 melanoma
M14 melanoma = test system: M14 melanoma
SNB-19 CNS = test system: SNB-19 CNS
NCI-H460 lung = test system: NCI-H460 lung
SN12C renal = test system: SN12C renal
MOLT-4 leukemia = test system: MOLT-4 leukemia
CAKI-1 renal = test system: CAKI-1 renal
RXF 393 renal = test system: RXF 393 renal
SK-MEL-5 melanoma = test system: SK-MEL-5 melanoma
NCI-H522 lung = test system: NCI-H522 lung
SW-620 colon = test system: SW-620 colon
SF-268 CNS = test system: SF-268 CNS
HCT-15 colon = test system: HCT-15 colon
SF-295 CNS = test system: SF-295 CNS
EKVX NSCLC = test system: EKVX NSCLC
BT-549 breast = test system: BT-549 breast
PC-3 prostate = test system: PC-3 prostate
MDA-N = test system: MDA-N
MDA-MB-231 breast = test system: MDA-MB-231 breast
SR leukemia = test system: SR leukemia
HS 578T breast = test system: HS 578T breast
SNB-78 CNS = test system: SNB-78 CNS
CCRF-CEM leukemia = test system: CCRF-CEM leukemia
MCF7 breast = test system: MCF7 breast
MDA-MB-435 = test system: MDA-MB-435
T-47D breast = test system: T-47D breast
OVCAR-5 ovarian = test system: OVCAR-5 ovarian
DU-145 prostate = test system: DU-145 prostate

Structure (SMILES): C1C[OH+]CC[OH+]CC[OH+]CC[OH+]CC[OH+]CC[OH+]1.[Cl-].[V]
- GI50 (OVCAR-3 ovarian): 20.7 µM
- TGI (OVCAR-3 ovarian): 41.8 µM
- GI50 (OVCAR-4 ovarian): 2.52 µM
- TGI (OVCAR-4 ovarian): 9.27 µM
- GI50 (HOP-92 NSCLC): 31.5 µM
- TGI (HOP-92 NSCLC): 99.2 µM
- GI50 (SK-OV-3 ovarian): 45.9 µM
- TGI (SK-OV-3 ovarian): 97 µM
- GI50 (SF-539 CNS): 5.43 µM
- TGI (SF-539 CNS): 17.9 µM
- GI50 (NCI-H226 lung): 40.1 µM
- TGI (NCI-H226 lung): > 100 µM
- GI50 (TK-10 renal): 20.4 µM
- TGI (TK-10 renal): 92.5 µM
- GI50 (UACC-257 melanoma): 16.6 µM
- TGI (UACC-257 melanoma): 37.4 µM
- GI50 (LOX IMVI melanoma): 20.7 µM
- TGI (LOX IMVI melanoma): 38.7 µM
- GI50 (RPMI-8226 leukemia): 64.1 µM
- TGI (RPMI-8226 leukemia): > 100 µM
- GI50 (U251 CNS): 35.8 µM
- TGI (U251 CNS): > 100 µM
- GI50 (SK-MEL-28 melanoma): 13.7 µM
- TGI (SK-MEL-28 melanoma): 43.5 µM
- GI50 (HL-60(TB) leukemia): 37.1 µM
- TGI (HL-60(TB) leukemia): > 100 µM
- GI50 (KM20L2 colon): 46.5 µM
- TGI (KM20L2 colon): > 100 µM
- GI50 (HCT-116 colon): 35.9 µM
- TGI (HCT-116 colon): > 100 µM
- GI50 (SK-MEL-2 melanoma): 29.2 µM
- TGI (SK-MEL-2 melanoma): 98.2 µM
- GI50 (HT29 colon): 39.7 µM
- TGI (HT29 colon): > 100 µM
- GI50 (HCC-2998 colon): 71.9 µM
- TGI (HCC-2998 colon): > 100 µM
- GI50 (SNB-75 CNS): 13.9 µM
- TGI (SNB-75 CNS): 30 µM
- GI50 (UO-31 renal): > 100 µM
- TGI (UO-31 renal): > 100 µM
- GI50 (COLO 205 colon): > 100 µM
- TGI (COLO 205 colon): > 100 µM
- GI50 (ACHN renal): 31.1 µM
- TGI (ACHN renal): > 100 µM
- GI50 (NCI-H23 lung): 21.9 µM
- TGI (NCI-H23 lung): 47.7 µM
- GI50 (IGROV1 ovarian): 13 µM
- TGI (IGROV1 ovarian): > 100 µM
- GI50 (KM12 colon): 31.3 µM
- TGI (KM12 colon): > 100 µM
- GI50 (HOP-62 NSCLC): 19.2 µM
- TGI (HOP-62 NSCLC): 33.9 µM
- GI50 (A549 NSCLC): 39.1 µM
- TGI (A549 NSCLC): > 100 µM
- GI50 (A498 renal): > 100 µM
- TGI (A498 renal): > 100 µM
- GI50 (786-0 renal): 11.7 µM
- TGI (786-0 renal): 33.9 µM
- GI50 (K-562 leukemia): > 100 µM
- TGI (K-562 leukemia): > 100 µM
- GI50 (MALME-3M melanoma): 8.19 µM
- TGI (MALME-3M melanoma): 28.7 µM
- GI50 (OVCAR-8 ovarian): > 100 µM
- TGI (OVCAR-8 ovarian): > 100 µM
- GI50 (UACC-62 melanoma): 10.7 µM
- TGI (UACC-62 melanoma): 51.4 µM
- GI50 (M14 melanoma): 12.1 µM
- TGI (M14 melanoma): 93.8 µM
- GI50 (SNB-19 CNS): 47.1 µM
- TGI (SNB-19 CNS): > 100 µM
- GI50 (NCI-H460 lung): 36 µM
- TGI (NCI-H460 lung): > 100 µM
- GI50 (SN12C renal): > 100 µM
- TGI (SN12C renal): > 100 µM
- GI50 (MOLT-4 leukemia): 82.5 µM
- TGI (MOLT-4 leukemia): > 100 µM
- GI50 (CAKI-1 renal): 36.9 µM
- TGI (CAKI-1 renal): > 100 µM
- GI50 (RXF 393 renal): 4.89 µM
- TGI (RXF 393 renal): 19 µM
- GI50 (SK-MEL-5 melanoma): 4.76 µM
- TGI (SK-MEL-5 melanoma): 25.3 µM
- GI50 (NCI-H522 lung): 26.3 µM
- TGI (NCI-H522 lung): 99.5 µM
- GI50 (SW-620 colon): 49.6 µM
- TGI (SW-620 colon): > 100 µM
- GI50 (SF-268 CNS): 42.9 µM
- TGI (SF-268 CNS): > 100 µM
- GI50 (HCT-15 colon): 50.9 µM
- TGI (HCT-15 colon): > 100 µM
- GI50 (SF-295 CNS): 18.7 µM
- TGI (SF-295 CNS): 43.8 µM

Structure (SMILES): CN(C)CCCNc1ccnc2cccc([N+](=O)[O-])c12
- TGI (EKVX NSCLC): 19.9 µM
- TGI (OVCAR-3 ovarian): 20.6 µM
- TGI (OVCAR-4 ovarian): 20.4 µM
- TGI (HOP-92 NSCLC): 28.8 µM
- TGI (SK-OV-3 ovarian): 22.9 µM
- TGI (SF-539 CNS): 45.1 µM
- TGI (BT-549 breast): 43.9 µM
- TGI (NCI-H226 lung): 38.2 µM
- TGI (TK-10 renal): 36 µM
- TGI (UACC-257 melanoma): 30.7 µM
- TGI (LOX IMVI melanoma): 35.8 µM
- TGI (RPMI-8226 leukemia): > 100 µM
- TGI (U251 CNS): > 70.7 µM
- TGI (SK-MEL-28 melanoma): 35.4 µM
- TGI (HL-60(TB) leukemia): > 100 µM
- TGI (KM20L2 colon): 25.9 µM
- TGI (HCT-116 colon): 27.7 µM
- TGI (SK-MEL-2 melanoma): 33.8 µM
- TGI (HT29 colon): 27 µM
- TGI (HCC-2998 colon): 32.1 µM
- TGI (SNB-75 CNS): 73.4 µM
- TGI (UO-31 renal): 38.8 µM
- TGI (COLO 205 colon): 15.6 µM
- TGI (PC-3 prostate): 30.3 µM
- TGI (ACHN renal): 24.3 µM
- TGI (NCI-H23 lung): 23.5 µM
- TGI (IGROV1 ovarian): 28.3 µM
- TGI (KM12 colon): 27 µM
- TGI (HOP-62 NSCLC): > 56.9 µM
- TGI (A549 NSCLC): 35.7 µM
- TGI (A498 renal): 30.7 µM
- TGI (MDA-N): 47 µM
- TGI (786-0 renal): 37.1 µM
- TGI (K-562 leukemia): > 100 µM
- TGI (MDA-MB-231 breast): 39.6 µM
- TGI (SR leukemia): > 100 µM
- TGI (MALME-3M melanoma): 21.4 µM
- TGI (OVCAR-8 ovarian): > 100 µM
- TGI (M14 melanoma): 25.8 µM
- TGI (SNB-19 CNS): 56.6 µM
- TGI (NCI-H460 lung): 25.2 µM
- TGI (HS 578T breast): 97.1 µM
- TGI (SN12C renal): 30.8 µM
- TGI (MOLT-4 leukemia): > 100 µM
- TGI (CAKI-1 renal): 52.8 µM
- TGI (RXF 393 renal): 61.1 µM
- TGI (SNB-78 CNS): 61.6 µM
- TGI (SK-MEL-5 melanoma): 24.4 µM
- TGI (NCI-H522 lung): 18.2 µM
- TGI (CCRF-CEM leukemia): > 100 µM
- TGI (SW-620 colon): 40.1 µM
- TGI (SF-268 CNS): 47.7 µM
- TGI (MCF7 breast): 28.2 µM
- TGI (HCT-15 colon): 39.9 µM
- TGI (MDA-MB-435): 42.3 µM
- TGI (T-47D breast): 80.8 µM
- TGI (OVCAR-5 ovarian): 44.1 µM
- TGI (DU-145 prostate): > 100 µM
- TGI (SF-295 CNS): 36.5 µM
